# From the supplement of paper PMC10307832
# How the values were obtained:
# Assay in all cases: relative viability (nuclei count vs DMSO), 5 days (fraction); higher = more cells survive
# XMD8-85 + Navitoclax = compound: CN1CCN(CC1)C2=CC(=C(C=C2)NC3=NC=C4C(=N3)N(C5=CC=CC=C5C(=O)N4C)C)OC [XMD8-85] + CC1(C)CCC(c2ccc(Cl)cc2)=C(CN2CCN(c3ccc(C(=O)NS(=O)(=O)c4ccc(N[C@H](CCN5CCOCC5)CSc5ccccc5)c(S(=O)(=O)C(F)(F)F)c4)cc3)CC2)C1 [Navitoclax] (partner 0.5 µM)
# Procedure, shortened: (§1)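 Lung cancer cell lines in 1536-well plates got either a single drug or a fixed anchor-drug dose together with five library-drug doses (not always all listed) in √10 steps, by pin tool, on the day after seeding. Nuclei were counted after 5 days, and relative viability is the treated-to-vehicle ratio of nuclei counts. Values are medians of duplicate plates.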
# XMD8-85 + Palbociclib = compound: CN1CCN(CC1)C2=CC(=C(C=C2)NC3=NC=C4C(=N3)N(C5=CC=CC=C5C(=O)N4C)C)OC [XMD8-85] + CC(=O)c1c(C)c2cnc(Nc3ccc(N4CCNCC4)cn3)nc2n(C2CCCC2)c1=O [Palbociclib] (partner 0.5 µM)
# Procedure, shortened: as §1
# 4EGI-1 + Linsitinib = compound: O=C(O)C(Cc1ccccc1[N+](=O)[O-])=NNc1nc(-c2ccc(Cl)c(Cl)c2)cs1 (mixture of isomers) [4EGI-1] + C[C@]1(O)C[C@@H](c2nc(-c3ccc4ccc(-c5ccccc5)nc4c3)c3c(N)nccn32)C1 [Linsitinib] (partner 1 µM)
# Procedure, shortened: as §1
# 4EGI-1 + Crizotinib = compound: O=C(O)C(Cc1ccccc1[N+](=O)[O-])=NNc1nc(-c2ccc(Cl)c(Cl)c2)cs1 (mixture of isomers) [4EGI-1] + C[C@@H](Oc1cc(-c2cnn(C3CCNCC3)c2)cnc1N)c1c(Cl)ccc(F)c1Cl [Crizotinib] (partner 1 µM)
# Procedure, shortened: as §1
Cell Line,relative viability (XMD8-85 + Navitoclax; first compound 0.08 µM),relative viability (XMD8-85 + Navitoclax; first compound 0.253 µM),relative viability (XMD8-85 + Navitoclax; first compound 2.53 µM),relative viability (XMD8-85 + Navitoclax; first compound 8 µM),relative viability (XMD8-85 + Palbociclib; first compound 0.253 µM),relative viability (XMD8-85 + Palbociclib; first compound 0.8 µM),relative viability (XMD8-85 + Palbociclib; first compound 2.53 µM),relative viability (4EGI-1 + Linsitinib; first compound 0.5 µM),relative viability (4EGI-1 + Linsitinib; first compound 1.581 µM),relative viability (4EGI-1 + Linsitinib; first compound 5 µM),relative viability (4EGI-1 + Linsitinib; first compound 15.81 µM),relative viability (4EGI-1 + Linsitinib; first compound 50 µM),relative viability (4EGI-1 + Crizotinib; first compound 0.5 µM),relative viability (4EGI-1 + Crizotinib; first compound 1.581 µM),relative viability (4EGI-1 + Crizotinib; first compound 5 µM),relative viability (4EGI-1 + Crizotinib; first compound 15.81 µM),relative viability (4EGI-1 + Crizotinib; first compound 50 µM),relative viability (XMD8-85 + Palbociclib; first compound 0.08 µM),relative viability (XMD8-85 + Palbociclib; first compound 8 µM),relative viability (XMD8-85 + Navitoclax; first compound 0.8 µM)
NCI-H727,0.466,0.365,0.379,0.247,0.689,0.6,0.6,0.337,0.286,0.268,0.229,0.301,1.7,0.926,0.716,0.588,0.343,,,
LCLC-103H,,,,,0.445,0.489,0.484,1.09,0.994,0.955,1.03,0.887,1.05,0.926,0.937,0.857,1.05,0.483,0.405,
ABC-1,,,,,0.598,0.781,0.689,0.977,0.863,0.806,0.68,0.419,1.23,0.7,1.09,0.472,0.259,0.468,,
NCI-H3122,1.08,1.01,1.06,1.1,0.192,0.218,0.186,1.04,0.956,0.943,1.01,0.567,0.274,0.262,0.281,0.24,0.221,0.188,0.215,1.09
NCI-H1648,,,,,0.261,0.225,0.258,,,,,,,,,,,0.251,0.288,
NCI-H1703,1.02,1.18,1.13,0.983,,,,1.4,0.632,1.06,1.27,0.994,0.754,0.597,0.681,0.521,0.269,,,1.23
HOP-62,0.996,1.08,0.992,0.79,0.463,,0.378,1.19,,1.16,1.03,0.707,0.667,,0.938,0.89,0.574,0.512,0.246,0.939
NCI-H2405,0.877,1.09,0.662,0.427,,0.543,0.528,1.14,0.889,1.02,1.02,0.536,0.865,0.747,0.909,0.896,0.854,0.527,0.509,1.08
LXF-289,0.831,0.867,0.974,0.811,0.615,0.561,0.658,0.984,0.96,0.921,0.935,0.673,0.889,0.803,0.817,0.672,0.332,0.581,0.54,0.951
NCI-H1355,1.06,1.01,0.862,0.804,0.365,,0.619,0.927,0.831,0.714,0.611,0.614,1.18,0.952,1.03,0.779,0.748,0.395,0.306,0.977
NCI-H596,1.04,1.13,0.68,0.377,,,,1.06,0.818,1.09,1.02,0.815,1.15,0.846,1.13,0.878,0.557,,,1.07
NCI-H1975,1.25,1.12,1.09,0.532,0.511,0.524,0.651,0.902,0.941,1.01,1.01,0.698,0.951,0.889,0.939,0.972,0.636,0.587,0.296,1.09
H3255,0.519,0.581,0.484,0.284,0.323,0.285,0.273,1.09,0.697,0.994,0.584,0.857,1.14,0.573,0.856,0.612,0.541,0.33,0.26,0.45
COR-L 105,0.83,0.819,0.563,0.337,0.423,0.368,0.382,1.04,0.85,0.999,0.988,0.675,0.722,0.626,0.789,0.887,0.784,0.421,0.409,0.738
EBC-1,0.437,0.375,0.296,0.268,,,,0.992,1,0.995,0.652,1.04,0.205,0.247,0.162,0.183,0.224,,,0.402
COR-L23,1.24,1.06,0.871,0.629,0.234,0.269,0.294,1.05,0.814,0.918,0.492,0.162,0.687,0.412,0.64,0.521,0.141,0.269,0.238,1.02
NCI-H1793,0.334,0.348,1.27,0.351,0.251,0.319,0.38,1,0.996,0.819,0.645,0.747,,,,,,,0.208,0.962
NCI-H2085,1.16,1.11,1.04,0.789,0.452,0.419,0.475,1.03,0.911,0.887,0.771,0.639,0.916,0.901,0.86,0.784,0.578,0.446,0.397,1.12
SW 900,,,,,0.535,0.594,0.496,,,,,,,,,,,0.553,0.324,
